Data as given in patent US8637511B2, “Aminopyrimidines useful as kinase inhibitors” (Vertex Pharmaceuticals Incorporated, priority 2005, dated 2014).

Assays:
FLT-3 = biological target: T1, FLT-3 (Homo sapiens, UniProt P36888); experiment: FLT-3 inhibition assay, radiometric filter-binding; assay type: biochemical
T1 sequence (P36888 27-993): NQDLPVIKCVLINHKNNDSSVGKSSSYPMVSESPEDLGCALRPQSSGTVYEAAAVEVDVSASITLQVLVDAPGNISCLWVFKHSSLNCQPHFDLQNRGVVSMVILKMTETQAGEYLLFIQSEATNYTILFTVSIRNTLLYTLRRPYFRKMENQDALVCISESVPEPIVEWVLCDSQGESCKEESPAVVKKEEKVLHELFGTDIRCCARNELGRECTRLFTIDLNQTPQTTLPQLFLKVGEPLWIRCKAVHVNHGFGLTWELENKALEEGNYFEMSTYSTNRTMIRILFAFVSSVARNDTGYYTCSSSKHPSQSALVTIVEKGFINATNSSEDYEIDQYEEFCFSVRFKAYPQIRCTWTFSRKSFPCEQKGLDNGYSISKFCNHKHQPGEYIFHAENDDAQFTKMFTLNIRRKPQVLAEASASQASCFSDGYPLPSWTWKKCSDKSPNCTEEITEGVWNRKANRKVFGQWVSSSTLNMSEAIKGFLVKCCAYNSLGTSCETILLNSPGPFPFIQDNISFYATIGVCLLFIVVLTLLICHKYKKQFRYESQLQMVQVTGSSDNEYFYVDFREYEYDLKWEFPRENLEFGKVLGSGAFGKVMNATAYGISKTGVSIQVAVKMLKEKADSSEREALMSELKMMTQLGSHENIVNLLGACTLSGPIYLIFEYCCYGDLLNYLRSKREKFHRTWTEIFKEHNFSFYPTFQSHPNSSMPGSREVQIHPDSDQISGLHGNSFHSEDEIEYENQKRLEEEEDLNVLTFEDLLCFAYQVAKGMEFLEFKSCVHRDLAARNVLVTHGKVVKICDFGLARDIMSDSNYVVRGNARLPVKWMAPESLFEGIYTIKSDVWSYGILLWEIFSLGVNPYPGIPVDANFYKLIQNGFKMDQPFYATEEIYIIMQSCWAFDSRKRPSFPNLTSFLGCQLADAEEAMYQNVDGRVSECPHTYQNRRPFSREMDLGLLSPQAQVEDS
Method: This assay monitors the 33P incorporation into a substrate poly(Glu, Tyr) 4:1 (pE4Y). […] Final substrate concentrations in the assay were 90 μM ATP and 0.5 mg/ml pE4Y (both from Sigma Chemicals, St. Louis, Mo.). […] Reactions were carried out at room temperature.
Two assay solutions were prepared. Solution 1 contains 100 mM HEPES (pH 7.5), 10 mM MgCl2, 25 mM NaCl, 1 mg/ml pE4Y and […] (containing 0.3 mCi of [γ-33^P]ATP for each reaction). Solution 2 contains 100 mM HEPES (pH 7.5), 10 mM MgCl2, 25 mM NaCl, 2 mM DTT, 0.02% BSA and 3 nM FLT-3. The assay was run on a 96 well plate by mixing 50 μl each of Solution 1 and […] of the compounds of the present invention. The reaction was initiated with Solution 2. […] All of the reaction volume was then transferred to a filter plate and washed with 5% TCA by a Harvester 9600 from TOMTEC (Hamden, Conn.). The amount of ^33P incorporation into pE4y was analyzed by a Packard Top Count Microplate Scintillation Counter (Meriden, Conn.). The data was fitted using Prism software to get an IC50 or Ki.

Colo205 cells = experiment: Analysis of cell proliferation and viability; assay type: cell-based; conditions: Homo sapiens, COLO 205; Colo205 cells, incubated for 96 hours; read-out: IC50 value
human Itk kinase = biological target: T2, human Itk kinase (Homo sapiens, UniProt Q08881); experiment: Itk inhibition assay: radioactivity-based assay; assay type: biochemical; conditions: Ki(app)
T2 sequence (Q08881 1-620): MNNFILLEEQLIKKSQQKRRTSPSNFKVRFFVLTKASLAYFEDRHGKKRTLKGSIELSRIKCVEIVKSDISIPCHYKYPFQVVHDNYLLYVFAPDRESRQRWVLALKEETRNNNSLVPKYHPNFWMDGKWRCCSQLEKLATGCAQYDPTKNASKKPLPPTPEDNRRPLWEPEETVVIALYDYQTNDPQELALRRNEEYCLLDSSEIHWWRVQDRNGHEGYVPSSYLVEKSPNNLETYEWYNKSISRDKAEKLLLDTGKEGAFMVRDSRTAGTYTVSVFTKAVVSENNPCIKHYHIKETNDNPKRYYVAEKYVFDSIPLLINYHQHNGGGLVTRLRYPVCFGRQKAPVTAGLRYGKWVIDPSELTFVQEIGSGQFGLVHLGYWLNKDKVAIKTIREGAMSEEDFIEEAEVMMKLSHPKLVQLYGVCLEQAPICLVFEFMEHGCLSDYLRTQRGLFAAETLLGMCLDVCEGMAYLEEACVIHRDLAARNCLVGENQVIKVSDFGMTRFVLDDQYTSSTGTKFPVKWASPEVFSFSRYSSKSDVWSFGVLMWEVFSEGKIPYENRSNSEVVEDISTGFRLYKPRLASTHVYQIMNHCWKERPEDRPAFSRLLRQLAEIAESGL
Method: The compounds of the present invention were evaluated as inhibitors of human Itk kinase using a radioactivity-based assay. These compounds can also be evaluated using a spectrophotometric or alphascreen assay.
Assays were carried out in a mixture of 20 mM MOPS (pH 7.0), 10 mM MgCl2, 0.1% BSA and 1 mM DTT. Final substrate concentrations in the assay were 7.5 μM [γ-^33P]ATP (400 μCi ^33P ATP/μmol ATP, Amersham Pharmacia Biotech/Sigma Chemicals) and 3 μM peptide (SAM68 protein Δ332-443). Assays were carried out at 25° C. in the presence of 50 nM Itk. An assay stock buffer solution was prepared containing all of the reagents listed above, with the exception of ATP and the test compound of interest. 50 μL of the stock solution was placed in a 96 well plate followed by addition of 2 μL of DMSO stock containing serial dilutions of the test compound (typically starting from a final concentration of 50 μM with 2-fold serial dilutions) in duplicate (final DMSO concentration 2%). The plate was pre-incubated for 10 minutes at 25° C. and the reaction initiated by addition of 50 μL [γ-^33P]ATP (final concentration 7.5 μM).
The reaction was stopped after 10 minutes by the addition of 100 μL 0.2M phosphoric acid+0.01% TWEEN 20. A multiscreen phosphocellulose filter 96-well plate (Millipore, Cat no. MAPHNOB50) was pretreated with 100 μL 0.2M phosphoric acid+0.01% TWEEN 20 prior to the addition of 170 μL of the stopped assay mixture. The plate was washed with 4×200 μL 0.2M phosphoric acid+0.01% TWEEN 20. After drying, 30 μL Optiphase ‘SuperMix’ liquid scintillation cocktail (Perkin Elmer) was added to the well prior to scintillation counting (1450 Microbeta Liquid Scintillation Counter, Wallac).
Ki(app) data were calculated from non-linear regression analysis of the initial rate data using the Prism software package (GraphPad Prism version 3.0cx for Macintosh, GraphPad Software, San Diego Calif., USA).

## CCc1cc(Nc2cc(N3CCC3)nc(Sc3ccc(NC(=O)c4ccccc4Cl)cc3)n2)n[nH]1 [Compound 64]
FLT-3
  Ki: 50 to 150 nM
Colo205 cells
  IC50: 50 to 1000 nM
Human Itk kinase
  Ki: ≤ 100 nM
